Laboratory results from paper PMC5733478, “A Non-imaging High Throughput Approach to Chemical Library Screening at the Unmodified Adenosine-A3 Receptor in Living Cells” (Frontiers in Pharmacology, 2017).
Counter-ions that a name gives are not always drawn.

Target: T1, human A3AR (Homo sapiens, UniProt P0DMS8)
T1 construct: expressed in transfected cells
T1 sequence (P0DMS8 1-318): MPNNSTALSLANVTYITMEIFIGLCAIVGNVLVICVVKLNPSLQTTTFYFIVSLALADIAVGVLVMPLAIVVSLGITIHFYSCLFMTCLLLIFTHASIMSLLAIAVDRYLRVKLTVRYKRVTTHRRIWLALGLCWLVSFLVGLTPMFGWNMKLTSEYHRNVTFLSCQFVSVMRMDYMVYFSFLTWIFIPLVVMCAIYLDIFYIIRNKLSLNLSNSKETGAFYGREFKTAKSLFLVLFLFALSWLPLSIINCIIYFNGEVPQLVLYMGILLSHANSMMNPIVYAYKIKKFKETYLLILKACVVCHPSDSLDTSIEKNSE
Assay: LOPAC library primary screen: single concentration (10 μM) inhibition of 25 nM CA200645 binding, PHERAstar FS
Conditions: not given

In order of falling “% 25 nM CA200645 binding” value:
1. COc1ccccc1N1CCN(CCN(C(=O)c2ccc(F)cc2)c2ccccn2)CC1.Cl.Cl [p-MPPF dihydrochloride]  117.8 ± 19.4%
2. O=C(O)c1cc(O)cc(C(=O)O)n1 [Chelidamic acid]  110.2 ± 8.8%
3. NCCCCCC(=O)O [6-Aminohexanoic acid]  109.0 ± 9.6%
4. O=Nc1ccc2oc(=O)ccc2c1 [6-Nitroso-1,2-benzopyrone]  107.9 ± 12.7%
5. COCC(=O)O[C@]1(CCN(C)CCCc2nc3ccccc3[nH]2)CCc2cc(F)ccc2[C@@H]1C(C)C [Mibefradil dihydrochloride]  107.6 ± 26.6%
6. CN(C)CCOC(C)(c1ccccc1)c1ccccn1 (stereo not shown) [Doxylamine succinate]  107.4 ± 0.7%
7. CCC(=O)N1CCN(C(=O)c2ccccc2)CC1 [DM 235]  105.1 ± 10.7%
8. Cl.NCCC[C@](N)(C(=O)O)C(F)F (racemic)  103.2 ± 12.1%
9. CN1CCC(c2c[nH]c3ccc(O)cc23)CC1.O=C(O)/C=C\C(=O)O [BRL 54443 maleate]  102.8 ± 6.2%
10. Cl.O=C(c1ccc(OCCCc2cnc[nH]2)cc1)C1CC1 [Ciproxifan hydrochloride]  102.4 ± 6.2%
11. CC(C)(C)OC(=O)NC1[C@H]2CNC[C@@H]12 (stereo partly shown) [CP-101537]  102.3 ± 6.7%
12. CNC[C@H](O)c1cccc(O)c1 [Phenylephrine hydrochloride]  102.2 ± 12.7%
13. Clc1cccc(Cl)c1N=C1NCCN1 [Clonidine hydrochloride]  101.9 ± 9.8%
14. CN(C)c1ccc(O)c2c1C[C@H]1C[C@H]3[C@H](N(C)C)C(O)=C(C(N)=O)C(=O)[C@@]3(O)C(O)=C1C2=O [Minocycline hydrochloride]  101.7 ± 17.9%
15. CCCN(CCC)C1Cc2cc(OC)c(OC)cc2C1.O=C(O)/C=C\C(=O)O [U-99194A maleate]  101.3 ± 8.9%
16. CC(=O)C(C)=O [2,3-Butanedione]  101.3 ± 15.0%
17. CN1C(C(=O)Nc2ccccn2)=C(O)c2ccccc2S1(=O)=O [Piroxicam]  101.0 ± 12.2%
18. Cl.c1ccc2nc(C3=NCCN3)ccc2c1 [BU224 hydrochloride]  100.8 ± 7.2%
19. CO/N=C(\C(=O)N[C@@H]1C(=O)N2C(C(=O)O)=C(CSc3nc(=O)c(=O)[nH]n3C)CS[C@H]12)c1csc(N)n1 [Ceftriaxone sodium]  100.5 ± 11.9%
20. CC(N)c1cccc(Cl)c1Cl.Cl (racemic)  100.4 ± 9.9%
21. N=C(N)c1ccc(OCCCCCOc2ccc(C(=N)N)cc2)cc1 [Pentamidine isethionate]  100.3 ± 6.3%
22. O=c1onc2n1-c1cc(Br)ccc1OC2 [NS 2028]  100.2 ± 8.6%
23. Nc1nc2c(ncn2COCCO)c(=O)[nH]1 [Acyclovir]  99.9 ±13.7%
24. N=C(N)SCCc1cnc[nH]1 [Imetit dihydrobromide]  99.9 ± 2.2%
25. CC(NCCc1ccc(O)cc1)C(O)c1ccc(O)cc1 (stereo not shown) [Ritodrine hydrochloride]  99.4 ± 8.5%
26. COc1nc(C)nc(Cl)c1NC1=NCCN1.Cl [Moxonidine hydrochloride]  99.1 ± 3.2%
27. Cl.NCCc1ccc(O)cc1 [4-Hydroxyphenethylamine hydrochloride]  98.7 ± 19.0%
28. NCC(=O)NCCC(c1ccccc1)c1ccccc1 [N-(3,3-Diphenylpropyl)glycinamide]  98.7 ± 7.8%
29. Cc1cc2c(cc1Cl)N(C(=O)Nc1cccc3ncccc13)CC2 [SB-215505]  98.1 ± 14.8%
30. Cl.c1ccc(CN(CC2=NCCN2)c2ccccc2)cc1 [Antozoline hydrochloride]  97.0 ± 6.0%
31. CC(O)(CS(=O)(=O)c1ccc(F)cc1)C(=O)Nc1ccc(C#N)c(C(F)(F)F)c1 (stereo not shown) [Bicalutamide (CDX)]  96.9 ± 5.3%
32. C[C@]12C=CC(=O)C=C1CC[C@H]1[C@@H]3C[C@@H](O)[C@](O)(C(=O)CO)[C@@]3(C)C[C@H](O)[C@@]12F [Triamcinolone]  95.9 ± 21.3%
33. COc1ccc(/C=C/C(=O)Nc2ccccc2C(=O)O)cc1OC [Tranilast]  95.7 ± 1.4%
34. Nc1ccc(CCN2CCN(c3cccc(C(F)(F)F)c3)CC2)cc1 [PAPP]  95.6 ± 9.9%
35. c1ccc(C2CN3CCSC3=N2)cc1 (stereo not shown) [Tetramisole hydrochloride]  95.5 ± 22.8%
36. CC1CN(S(=O)(=O)c2cccc3cnccc23)CCN1.Cl.Cl (stereo not shown)  95.4 ± 14.7%
37. Nc1nc(N)c2nc(-c3ccccc3)c(N)nc2n1 [Triamterene]  95.3 ± 10.4%
38. CCCC(C(=O)OCCN(CC)CC)(c1ccccc1)c1ccccc1.Cl [SKF-525A hydrochloride]  95.3 ± 9.0%
39. Cc1nc2n(c(=O)c1CCN1CCC(c3noc4cc(F)ccc34)CC1)CCCC2O (stereo not shown) [Paliperidone]  94.9 ± 1.6%
40. C#CCn1c(=O)c2c(ncn2C)n(C)c1=O [3,7-Dimethyl-1-propargylxanthine]  94.8 ± 1.8%
41. N[C@@H]1[C@H]2CN(c3nc4c(cc3F)c(=O)c(C(=O)O)cn4-c3ccc(F)cc3F)C[C@@H]12 [Trovafloxacin mesylate]  94.4 ± 17.2%
42. CN(CC[C@@H](Oc1ccc(C(F)(F)F)cc1)c1ccccc1)CC(=O)[O-].[Li+] [Org 24598 lithium salt]  94.3 ± 5.8%
43. CO/N=C(\C(=O)N[C@@H]1C(=O)N2C(C(=O)O)=C(COC(C)=O)CS[C@H]12)c1csc(N)n1 [Cefotaxime sodium]  94.2 ± 6.2%
44. CCn1cnc2c(Nc3cccc(Cl)c3)nc(N[C@@H]3CCCC[C@@H]3N)nc21.Cl [CGP-74514A hydrochloride]  94.1 ± 9.9%
45. CC(C)(C(=O)O)c1ccc(C(O)CCCN2CCC(C(O)(c3ccccc3)c3ccccc3)CC2)cc1 (stereo not shown) [Fexofenadine hydrochloride]  93.9 ± 3.6%
46. CN1CCC(=C2c3ccccc3CC(=O)c3sccc32)CC1 [Ketotifen fumarate]  93.8 ± 4.0%
47. COc1cc2c(CCNC(C)=O)c[nH]c2cc1Cl [6-Chloromelatonin]  92.8 ± 24.3%
48. CC(/C=C/c1cccc(Oc2ccc(F)cc2)c1)N(O)C(N)=O (stereo not shown) [BWB70C]  92.4 ± 13.0%
49. COc1cccc(NC(=O)/C=C/c2ccc(Cl)cc2)c1 [SB-366791]  92.0 ± 7.1%
50. (±)-Ibuprofen  91.4 ± 12.3%
51. COc1cc(CNC(=O)CCCCCCC(C)C)ccc1O [Dihydrocapsaicin]  86.7 ± 9.6%
52. Cc1ncsc1CCCl.Cl [Chlormethiazole hydrochloride]  84.7 ± 21.7%
53. COc1ccc(CN(CCN(C)C)c2ccccn2)cc1 [Pyrilamine maleate]  84.6 ± 34.1%
54. Br.CN1CCc2cc(O)cc3c2[C@H]1Cc1ccc(O)c(O)c1-3  83.0 ± 14.1%
55. CCCCCCCCCCCCCCCC(=O)OC(CC(=O)O)C[N+](C)(C)C.[Cl-] (racemic) [Palmitoyl-DL-Carnitine chloride]  82.9 ± 21.8%
56. COc1ccc2[n-]c([S@@+]([O-])Cc3ncc(C)c(OC)c3C)nc2c1.COc1ccc2[n-]c([S@@+]([O-])Cc3ncc(C)c(OC)c3C)nc2c1.O.O.[Mg+2] [Esomeprazole magnesium dihydrate]  81.5 ± 16.8%
57. CN(C)CCCN1c2ccccc2Sc2ccccc21 [Promazine hydrochloride]  80.6 ± 8.4%
58. CCCCCCCCCCCCCCCCCCOCC(COP(=O)([O-])OCC[N+](C)(C)C)OC (stereo not shown) [ET-18-OCH3]  80.6 ± 4.5%
59. CC(C)N(CCC(C(N)=O)(c1ccccc1)c1ccccn1)C(C)C (stereo not shown) [Disopyramide]  78.9 ± 27.0%
60. CCN1/C(=C/C(C)=O)Sc2ccc(OC)cc21 [TG003]  77.3 ± 17.0%
61. S=c1[nH]c(-c2ccccc2)cn1-c1ccccc1 [KRM-III]  70.4 ± 12.2%
62. Clc1ccc(C(c2ccc(Cl)cc2)n2cc[n+](CC(OCc3ccc(Cl)cc3Cl)c3ccc(Cl)cc3Cl)c2)cc1 (stereo not shown) [Calmidazolium chloride]  54.4 ± 19.1%
63. CCCn1c(=O)c2[nH]c(-c3ccc(S(=O)(=O)O)cc3)nc2n(CCC)c1=O [1,3-dipropyl-8-p-sulfophenylxanthine, reference compound]  42.3 ± 4.8%
64. O=C1NC(=O)c2cc(Nc3ccccc3)c(Nc3ccccc3)cc21 [DAPH]  31.8 ± 9.9%

For `CCCn1c(=O)c2[nH]c(-c3ccc(S(=O)(=O)O)cc3)nc2n(CCC)c1=O` [1,3-dipropyl-8-p-sulfophenylxanthine, reference compound], the “% Total CA200645 binding” value was 42.3 ± 4.8%.

For `CCCn1c(=O)c2[nH]c(-c3ccc(S(=O)(=O)O)cc3)nc2n(CCC)c1=O` [1,3-dipropyl-8-p-sulfophenylxanthine, reference compound], the “hit in LOPAC primary screen (inhibited the binding of CA200645 by >40%)” value was “identified”.

Same assay, conditions: % of control wells (1% DMSO and 25 nM CA200645); compounds at 10 µM; whole live cells expressing the A3AR; mean ± SD, three experiments in duplicate

In order of falling “% 25 nM CA200645 binding” value:
1. NC(=Nc1ccccc1)NC(=O)c1nc(Cl)c(N)nc1N [Phenamil methanesulfonate]  100.4 ± 3.8%
2. CCCCNc1c(C(=O)OCC)c(C)nc2c1cnn2CC [Tracazolate]  98.9 ± 4.3%
3. Cc1nc2ccccn2c(=O)c1CCN1CCC(C(=O)c2ccc(F)cc2)CC1 [Pirenperone]  88.6 ± 5.4%
4. N#CC(C#N)=Cc1ccc(O)c(O)c1 [Tyrphostin 23]  84.9 ± 6.4%

Same assay, conditions: compounds tested at 10 µM; % of control wells (1% DMSO and 25 nM CA200645); whole live cells expressing the A3AR; mean ± SD, three experiments in duplicate

In order of rising “% 25 nM CA200645 binding” value:
1. NC(N)=NCCCCN=C(N)N [Arcaine sulfate]  96.1 ± 6.4%
2. O=C1N(c2ccccc2)c2ccccc2C1(Cc1ccncc1)Cc1ccncc1 [Linopirdine]  105.3 ± 3.6%
3. NCCS(=O)(=O)O [Taurine]  106.8 ± 10.4%
